Assay results published in patent publication US6794492B2, “Perfluoroalkyl compounds and their methods of use and manufacture” (Clemson University, priority 2000, dated 2004).

What was measured:
CNS tumor cell line = test: NCI in vitro anti-tumor screen, three-cell line evaluation (SRB protein assay), CNS; type: cell-based, human; settings: sample concentration 5.00 E-05 Molar, 48 hour continuous drug exposure
human tumor cell lines = test: NCI three-cell line evaluation, overall activity call; type: cell-based; settings: three-cell line (lung, breast, CNS); 5.00 E-05 Molar
lung tumor cell line = test: NCI in vitro anti-tumor screen, three-cell line evaluation (SRB protein assay), lung; type: cell-based, human; settings: sample concentration 5.00 E-05 Molar, 48 hour continuous drug exposure
Experimental: The testing below was conducted by the United States Public Health Service, Department of Health and Human Services. The National Cancer Institute (NCl) in vitro anti-tumor screening test consists of about 60 human tumor cell lines against which compounds are tested at a minimum of 5 concentrations at 10 fold dilutions. A 48 hour continuous drug exposure protocol is used, and a sulforhodamine B (SRB) protein assay is used to estimate cell viability or growth.
(§1) Data for the compound shown in the attached FIG. 3 which was tested according to the National Cancer Institutes Developmental Theraputics Program (dose response curves) is shown in attached FIG. 13.

breast tumor cell line = test: NCI in vitro anti-tumor screen, three-cell line evaluation (SRB protein assay), breast; type: cell-based, human; settings: sample concentration 5.00 E-05 Molar, 48 hour continuous drug exposure
Experimental: The testing below was conducted by the United States Public Health Service, Department of Health and Human Services. […] A 48 hour continuous drug exposure protocol is used, and a sulforhodamine B (SRB) protein assay is used to estimate cell viability or growth.
as §1

SMILES: CC[C@H](C)[C@H](NC(=O)[C@H](Cc1ccc(O)cc1)NCC(F)(F)F)C(=O)OC(C)(C)C [S712619]
- Growth Percentages CNS (CNS tumor cell line): −75%
- activity (human tumor cell lines): active
- Growth Percentages lung (lung tumor cell line): −77%
- Growth Percentages breast (breast tumor cell line): −57%
